Data: PMC3320663 (Chemmedchem, 2011)
“And” between values parts separate entries of the source, which are not always exact repeats. Identical values can stand only once. Like-named read-outs stand apart in the source and are kept apart here.

Tests used:
[1] = tested on: bloodstream form T. brucei; conditions: read-out: cell potency, cited from earlier work
[2] = Human cell counter-screen proliferation assay; assay type: cell-based; conditions: MRC5 fibroblasts
TbTryS = target: T1, TbTryS (Trypanosoma brucei, UniProt Q586P2); experiment: Trypanothione synthetase; assay type: biochemical; conditions: for LE (ligand efficiency): calculated as −0.6×ln(IC50)/(heavy atom count)
T1 sequence (Q586P2 1-627): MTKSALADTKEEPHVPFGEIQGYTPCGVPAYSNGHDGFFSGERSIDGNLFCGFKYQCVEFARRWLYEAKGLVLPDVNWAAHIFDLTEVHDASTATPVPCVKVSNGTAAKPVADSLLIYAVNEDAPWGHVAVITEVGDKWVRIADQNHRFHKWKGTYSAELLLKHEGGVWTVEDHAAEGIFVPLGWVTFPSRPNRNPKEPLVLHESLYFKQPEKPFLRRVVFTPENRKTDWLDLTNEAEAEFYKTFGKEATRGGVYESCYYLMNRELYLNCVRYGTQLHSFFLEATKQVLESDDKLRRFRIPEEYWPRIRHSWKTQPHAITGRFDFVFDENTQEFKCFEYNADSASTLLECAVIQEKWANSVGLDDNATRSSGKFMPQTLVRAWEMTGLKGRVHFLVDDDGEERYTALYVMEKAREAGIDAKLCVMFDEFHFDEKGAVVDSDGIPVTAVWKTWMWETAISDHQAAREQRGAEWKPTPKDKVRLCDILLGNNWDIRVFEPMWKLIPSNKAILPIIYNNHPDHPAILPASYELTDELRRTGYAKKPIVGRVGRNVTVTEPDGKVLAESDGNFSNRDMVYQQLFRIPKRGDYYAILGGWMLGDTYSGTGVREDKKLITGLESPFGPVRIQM

[3] = tested on: bloodstream form T. brucei; experiment: Trypanosomal cell proliferation assay; assay type: cell-based; conditions: Trypanosoma brucei, read-out: Tb EC50
[4] = In vitro metabolic clearance assay; assay type: in vitro ADME, human; conditions: for metabolic stability in words: pooled human liver microsomes; for Cli (intrinsic clearance): pooled human microsomes
[5] = tested on: trypanothione levels in T. brucei parasites; conditions: of wild-type levels; 2×EC50 for 72 h; cited from earlier work
[6] = tested on: TbTryS overexpressing (OE) cell line; conditions: read-out: EC50 OE cell line; cited from earlier work
[7] = tested on: TbTryS single knockout (SKO) cell line; conditions: read-out: EC50 SKO cell line; cited from earlier work
[8] = tested on: wild-type T. brucei cells; conditions: read-out: EC50 wild-type cell line; cited from earlier work

Row | Compound | EC50 [2] [µM] | IC50 (TbTryS; TbTryS IC50) | EC50 [3] [µM] | LE (ligand efficiency) (TbTryS) | also measured
1 | CC1CS(=O)(=O)CCN1/N=C/c1ccc([N+](=O)[O-])o1 (stereo not drawn) [nifurtimox] | – | – | – | – | EC50 ([1]; drugs in clinical use): 2 µM
2 | O=C(Cn1nc(C(F)(F)F)c2c1CCCC2)NCc1ccc(Cl)cc1 [Compound 26, N-(4-Chlorobenzyl)-2-(3-(trifluoromethyl)-4,5,6,7-tetrahydro-1H-indazol-1-yl)acetamide] | > 50 | 3 µM | 14 | – | metabolic stability in words [4]: reasonably metabolically stable; Cli (intrinsic clearance) [4]: 3.0 mL/min/g
3 | CN(C)CCCNC(=O)Cn1nc(-c2cccc(F)c2)c2ccccc21 [Compound 84, N-(3-(Dimethylamino)propyl)-2-(3-(3-fluorophenyl)-1H-indazol-1-yl)acetamide] | 20 | – | 5.4 | 0.39 | in vitro enzyme potency improved over the best HTS hits (TbTryS): > 10 fold; improvement in potency over the analogous piperazines (TbTryS; 83 vs 90, 84 vs 80): 18 fold; trypanothione levels [5]: < 10%; EC50 [6]: 23.3 µM; EC50 [7]: 1.2 µM; EC50 [8]: 7.1 µM
4 | CC(C)(C)C(=O)Cn1nc(-c2cccc(F)c2)c2ccccc21 [Compound 71, 1-(3-(3-Fluorophenyl)-1H-indazol-1-yl)-3,3-dimethylbutan-2-one] | > 50 | 0.09 µM | 7.9 | 0.42 | in vitro enzyme potency improved over the best HTS hits (TbTryS): > 10 fold; metabolic stability in words [4]: reasonably metabolically stable; Cli (intrinsic clearance) [4]: 1.6 mL/min/g
5 | Nc1nc(N)nc(Nc2ccc([As]3SCC(CO)S3)cc2)n1 (stereo not drawn) [melarsoprol] | – | – | – | – | EC50 ([1]; drug in clinical use): 0.008 µM
6 | CC(C)(C)S(=O)(=O)Cc1nc(-c2cccc(Cl)c2)cs1 [Compound 8, 2-((tert-Butylsulfonyl)methyl)-4-(3-chlorophenyl)thiazole] | > 50 | 0.4 µM and 0.41 µM | 22 | – | metabolic stability in words [4]: reasonably metabolically stable; Cli (intrinsic clearance) [4]: 0.9 mL/min/g
7 | NCCCC(N)(C(=O)O)C(F)F (stereo not drawn) [eflornithine] | – | – | – | – | EC50 ([1]; drugs in clinical use): 22 µM
8 | O=C(Cn1nc(-c2cccc(F)c2)c2ccccc21)N1CCCCC1 [Compound 89, 2-(3-(3-Fluorophenyl)-1H-indazol-1-yl)-1-(piperidin-1-yl)ethanone] | > 50 | 0.14 µM | 5.1 | 0.38 | IC50 (TbTryS; TbTryS IC50, values in running text): 0.135 µM; trypanothione levels [5]: < 10%; EC50 [6]: 44.5 µM; EC50 [7]: 6.9 µM; EC50 [8]: 20.4 µM
9 | CC(C)(C)C(=O)Cn1nc(-c2ccccc2)c2ccccc21 [Compound 60, 1-(3-Phenyl-1H-indazol-1-yl)-3,3-dimethylbutan-2-one] | – | 0.15 µM | – | – | –
10 | Fc1cccc(-c2nn(Cc3cc(-c4ccccc4)on3)c3ccccc23)c1 [Compound 78, 3-((3-(3-Fluorophenyl)-1H-indazol-1-yl)methyl)-5-phenylisoxazole] | – | > 100 µM | – | – | –
11 | CN1CCN(CCCNC(=O)Cn2nc(-c3cccc(F)c3)c3ccccc32)CC1 [Compound 80, 2-(3-(3-Fluorophenyl)-1H-indazol-1-yl)-N-(3-(4-methylpiperazin-1-yl)propyl)acetamide] | – | 0.83 µM | – | 0.28 | –
